The text below walks through data of patent US12564609B2, “Hematopoietic stem cell engraftment with a combination of agents” (The Board of Trustees of the Leland Stanford Junior …, priority 2020, dated 2026).

For the experiment, the system named is human Lin−CD34+CD38− cells. The experiment is described as follows: In vitro HSC culture, cell counting and live/dead viability assay (human). The format is cell-based. As to the method: A. Schematic of treatment protocol. C57BL/6 mice were injected with three different doses of AZA (1.25, 2.5 and 5 mg/kg/d) for 3 days. 24 h after last AZA injection BM was analyzed for HSC-depletion and Ki67 intracellular protein expression. B. Overlay histogram of Ki67 intracellular protein expression in LT-HSC (gated from live, Lin^−Sca1^+c-Kit^+CD150^+CD48^− cells) in mice treated with AZA 1.25 mg/kg, 2.5 mg/kg and 5 mg/kg/d for 3 consecutive days. C. Mean fluorescence intensity (MFI) of Ki67 intracellular protein expression in LT-HSC, ST-HSC, MPP2, MPP3/4 and myeloid progenitors (MP). Data were pooled from 2 independent experiments and represent mean±SD (n=7). Statistics were calculated Mann-Whitney test (*P<0.05; **P<0.01; ***P<0.001). […] After 48 h % live/dead cells was assessed by using EarlyTox Live/Dead Assay Kit. E. Proliferation curves of FACS-sorted mouse Lin^−Sca1^+c-Kit^+CD48^− in the presence of indicated concentrations of AZA (left) and cell viability as assessed by % of Calcein AM positive cells after 48 h of cell culture (right). […] Statistics were calculated with Mann-Whitney test (*P<0.05; **P<0.01; ***P<0.001). F. Proliferation curves of FACS-sorted human Lin^−CD34^+CD38^− cells in the presence of indicated concentrations of AZA (left) and cell viability as assessed by % of Calcein AM positive cells after 48 h of cell culture (right). […]

As for `Nc1ncn([C@@H]2O[C@H](CO)[C@@H](O)[C@H]2O)c(=O)n1` [AZA, 5-Azacytidine], the “number of cells in culture” value (AZA 0.1, 0.5 and 1 μg/ml at baseline and 24 h, 48 h culture with SCF and TPO) was “reduced the number of cells in a dose dependent manner”. Moreover, the “cell viability by Calcein AM” value (AZA concentrations 0.1 μg/ml, 48 h) was “significant decrease in cell viability”.
